Experimental data reported in publication PMC2074379 (British Journal of Cancer, 1996).
Entries after “also recorded” stand apart in the source; their conditions may differ. One block for each compound: values may come before it. Residues, ends and D or L forms follow the SMILES beside them.

Tests used:
[1] = Stability of antagonist D and antagonist G in 1% (w/v) mouse liver homogenate; assay type: in vitro ADME; details: for amount of antagonist remaining after 1 h of incubation: 50 nmol in 1.0 ml 1% w/v mouse liver homogenate in PBS pH 7.4, 37°C, HPLC with fluorescence detection, corrected for extraction efficiency (94.4% D, 94% G), three experiments; for amount of metabolite accumulated after 1 h: from 50 nmol parent antagonist in 1% mouse liver homogenate, PBS pH 7.4, 37°C, HPLC fluorescence, extraction efficiency 94.4% (D metabolites), 94% (G metabolites) assumed, mean of three experiments
Text: British Journal of Cancer (1996) 73, 715-720 ? 1996 Stockton Press All rights reserved 0007-0920/96 $12.00 % Metabolism of the broad-spectrum neuropeptide growth factor antagonist: ID-Arg1, D-Phe5, D-Trp7'9, Leull"-substance P DA Jones', J Cummings', SP Langdon', AJ Maclellan', T Higgins2, E Rozengurt2 and JF Smyth' 'Imperial Cancer Research Fund, Medical Oncology Unit, Western General Hospital, Edinburgh EH4 2XU; 2Imperial Cancer Research Fund, PO Box 123, Lincoln's Inn Fields, London WC2A 3PX, UK. Summary Broad-spectrum neuropeptide growth factor antagonists, such as [D-Arg', D-Phe5, D-Trp7'9, Leu']substance P (antagonist D) and [Arg6, D-Trp7'9, NmePhe8]substance p(6- 11) (antagonist G), are currently being investigated as possible anti-tumour agents. […] Keywords: broad spectrum; neuropeptide; antagonist; metabolism Successful, long-term treatment of small-cell lung cancer (SCLC) remains a major therapeutic problem. […] The disease is characterised by its ability to secrete and to be growth stimulated by a variety of neuropeptide growth factors that include bombesin/gastrin- releasing peptide (GRP), vasopressin, bradykinin, cholecys- tokinin and neurotensin (Woll and Rozengut, 1989). […] These agents include [D- Arg'-D-Phe5-D-Trp7'9-Leu' 1]-substance P and [Arg6-D-Trp7'9- NmePhe8]-substance P(6-11) (code named antagonists D and G respectively) (Sethi et al., 1992). […] In the near future antagonist G will be the first of this new class of compound, broad- spectrum neuropeptide growth factor antagonists, to enter a phase I clinical trial for the potential treatment of SCLC. […] The research reported here describes the characterisation of the in vitro metabolism of antagonist D, comparing its metabolic stability to that of antagonist G, which we have previously reported (Jones et al., 1995). […] Materials and methods Antagonist D was purchased from Peninsula Laboratories (St Helens, UK), Antagonist G was supplied by Peptech (Europe) (Copenhagen, Denmark). H-D-Arg-Pro-Lys-Pro-D- Phe-Gln-D-Trp-Phe-D-Trp-Leu-Leu-OH (metabolite 1) and H-D-Arg-Pro-Lys-Pro-D-Phe-Gln-D-Trp-Phe-D-Trp-Leu-OH (metabolite 2) were prepared in-house using conventional Fmoc solid-phase peptide synthesis procediures. Reagents for peptide synthesis were purchased from NovaBiochem (UK) (Nottingham, UK). Acetic acid and ammonium acetate were from BDH Chemicals (Poole, UK). Methanol and acetoni- trile were high-performance liquid chromatography (HPLC) grade from Rathburn Chemicals (Walkerburn, UK). Tri- fluoroacetic acid was from Sigma Chemical (Poole, UK). All other chemicals Were of the highest grade commercially available and used without further purification. Water was deionised and bidistilled in a quartz glass still. HPLC The HPLC system used consisted of two 510 HPLC pumps, a 712 WISP autosampler, a TCM column heater (all Waters, Northwich, UK) and a model 1046A fluorescence detector (Hewlett Packard, Walborn, Germany). A Waters MAXIMA 820 computer package was used with a Waters system interface module to control the system operation and collect and integrate data. Separation was achieved on a Prime- sphere 5 gm (250 x 4.6 mm) column (Phenomenex, Maccles- field, UK) using isocratic elution with 45% (v/v) acetonitrile in 0.1% (v/v) aqueous triflouroacetic acid (TFA) at 450C. Detection of the peptides was by fluorescence (Excitation 233 nm Emission 395 nm).

[2] = ref Cummings et al., 1994; cited from earlier work
Text: (§1) British Journal of Cancer (1996) 73, 715-720 ? 1996 Stockton Press All rights reserved 0007-0920/96 $12.00 % Metabolism of the broad-spectrum neuropeptide growth factor antagonist: ID-Arg1, D-Phe5, D-Trp7'9, Leull"-substance P DA Jones', J Cummings', SP Langdon', AJ Maclellan', T Higgins2, E Rozengurt2 and JF Smyth' 'Imperial Cancer Research Fund, Medical Oncology Unit, Western General Hospital, Edinburgh EH4 2XU; 2Imperial Cancer Research Fund, PO Box 123, Lincoln's Inn Fields, London WC2A 3PX, UK. Summary Broad-spectrum neuropeptide growth factor antagonists, such as [D-Arg', D-Phe5, D-Trp7' ...

[3] = tested on: Swiss 3T3 cells stimulated by vasopressin; assay: [3H]thymidine uptake by Swiss 3T3 cells after mitogenic stimulation by vasopressin; assay type: cell-based, murine; details: vasopressin 1 nM, 40 h, mean of duplicate samples
[4] = tested on: SCLC and non-SCLC cell lines; details: SCLC and non-SCLC cell lines in vitro; ref Reeve and Bleehan, 1994; cited from earlier work
Text: as §1

SCLC cells = details: ref Woll and Rozengurt, 1988; cited from earlier work
Text: as §1

[5] = tested on: SCLC xenografts (HC12 and ICR-SC112); details: ref Everard et al., 1993; cited from earlier work
Text: as §1

[6] = tested on: SCLC xenografts (WX322 and H69); details: WX322 and H69 xenografts in nude mice; ref Langdon et al., 1992; cited from earlier work
Text: as §1

[7] = tested on: non-SCLC, ovarian and cervical cancer cell lines; details: ref Everard et al., 1992; cited from earlier work
Text: as §1

[8] = tested on: Swiss 3T3 cells stimulated by bombesin; assay: [3H]thymidine uptake by Swiss 3T3 cells after mitogenic stimulation by bombesin; assay type: cell-based, murine; details: bombesin 1 nM, insulin 1 µg/ml, 40 h, mean of duplicate samples
[9] = tested on: Swiss 3T3 cells stimulated by bradykinin; assay: [3H]thymidine uptake by Swiss 3T3 cells after mitogenic stimulation by bradykinin; assay type: cell-based, murine; details: bradykinin 1 nM, insulin 1 µg/ml, 40 h, mean of duplicate samples
[10] = 1% (w/v) mouse liver homogenate in PBS (pH 7.4); details: 37?C, up to 1 h
human plasma = details: cited from earlier work
[11] = 2% w/v mouse liver homogenate in PBS (pH 7.4); details: 37?C, up to 2 h

Compound: CC(C)C[C@H](NC(=O)[C@H](CC(C)C)NC(=O)[C@@H](Cc1c[nH]c2ccccc12)NC(=O)[C@H](Cc1ccccc1)NC(=O)[C@@H](Cc1c[nH]c2ccccc12)NC(=O)[C@H](CCC(N)=O)NC(=O)[C@@H](Cc1ccccc1)NC(=O)[C@@H]1CCCN1C(=O)[C@H](CCCCN)NC(=O)[C@@H]1CCCN1C(=O)[C@H](N)CCCN=C(N)N)C(N)=O [antagonist D, [D-Arg1, D-Phe5, D-Trp7,9, Leu11]substance P] (HELM PEPTIDE1{[dR].P.K.P.[dF].Q.[dW].F.[dW].L.L.[am]}$$$$V2.0)
amount of antagonist remaining after 1 h of incubation [1]: 30.8 nmol
stability relative to antagonist G ([1]; 1% mouse liver homogenate, 37°C (Figure 2)): almost twice as stable as antagonist G
rate of disappearance relative to antagonist G ([1]; over the first 30 min, 1% mouse liver homogenate, 37°C): half the rate of antagonist G
stability in human plasma [2]: stable

Compound: CC(C)C[C@H](NC(=O)[C@H](CC(C)C)NC(=O)[C@@H](Cc1c[nH]c2ccccc12)NC(=O)[C@H](Cc1ccccc1)NC(=O)[C@@H](Cc1c[nH]c2ccccc12)NC(=O)[C@H](CCC(N)=O)NC(=O)[C@@H](Cc1ccccc1)NC(=O)[C@@H]1CCCN1C(=O)[C@H](CCCCN)NC(=O)[C@@H]1CCCN1C(=O)[C@H](N)CCCNC(=N)N)C(N)=O [antagonist D, [D-Arg1, D-Phe5, D-Trp7,9, Leu11]substance P] (HELM PEPTIDE1{[dR].P.K.P.[dF].Q.[dW].F.[dW].L.L.[am]}$$$$V2.0)
IC50 ([3]; [3H]thymidine uptake, read-out: IC50 value, vasopressin stimulated growth): < 1000 nM
induction of apoptosis [4]: induce apoptosis
potency against SCLC cells in vitro relative to antagonist G (SCLC cells): equipotent to antagonist G
activity against other SCLC xenografts in vivo [5]: activity
growth of SCLC xenografts [6]: inhibit the growth
in vitro activity against cancer cell lines [7]: activity

Compound: H-Arg-D-Trp-N"'Phe-D-Trp-Leu-Met-NH,
cleaved bond [10]: Met-NH2, major

Compound: H-D-Arg-Pro-Lys-Pro-D-Phe-GIn-D-Trp-Phe-D-Trp-Leu-Leu-NH2
not cleaved (human plasma): stable in human plasma
cleaved bond [11]: Leu11-NH2, major; also recorded: Leu10-Leu11, major
cleaved bond [10]: Leu11-NH2, major; also recorded: Leu10-Leu11, major

The next lines start with results.

amount of antagonist remaining after 1 h of incubation [1]: 21.1 nmol
Compound: CSCC[C@H](NC(=O)[C@H](CC(C)C)NC(=O)[C@@H](Cc1c[nH]c2ccccc12)NC(=O)[C@H](Cc1ccccc1)N(C)C(=O)[C@@H](Cc1c[nH]c2ccccc12)NC(=O)[C@@H](N)CCCNC(=N)N)C(N)=O [antagonist G, [Arg6, D-Trp7,9, NmePhe8]substance P(6-11)] (HELM PEPTIDE1{R.[dW].[meF].[dW].L.M.[am]}$$$$V2.0)
growth of SCLC xenografts [6]: inhibit the growth

amount of metabolite accumulated after 1 h [1]: 9.6 nmol
Compound: CC(C)C[C@H](NC(=O)[C@H](CC(C)C)NC(=O)[C@@H](Cc1c[nH]c2ccccc12)NC(=O)[C@H](Cc1ccccc1)NC(=O)[C@@H](Cc1c[nH]c2ccccc12)NC(=O)[C@H](CCC(N)=O)NC(=O)[C@@H](Cc1ccccc1)NC(=O)[C@@H]1CCCN1C(=O)[C@H](CCCCN)NC(=O)[C@@H]1CCCN1C(=O)[C@H](N)CCCNC(=N)N)C(=O)O [metabolite 1, H-D-Arg-Pro-Lys-Pro-D-Phe-Gln-D-Trp-Phe-D-Trp-Leu-Leu-OH] (HELM PEPTIDE1{[dR].P.K.P.[dF].Q.[dW].F.[dW].L.L}$$$$V2.0)
antagonist activity with respect to bombesin (inhibition of [3H]thymidine uptake) [8]: retained none of the antagonist properties
vasopressin antagonist activity (inhibition of [3H]thymidine uptake) ([3]; insulin 1 µg/ml): inactive
antagonist activity with respect to bradykinin (inhibition of [3H]thymidine uptake) [9]: retained none of the antagonist properties

amount of metabolite accumulated after 1 h [1]: 12.3 nmol
Compound: CC(C)C[C@H](NC(=O)[C@@H](Cc1c[nH]c2ccccc12)NC(=O)[C@H](Cc1ccccc1)NC(=O)[C@@H](Cc1c[nH]c2ccccc12)NC(=O)[C@H](CCC(N)=O)NC(=O)[C@@H](Cc1ccccc1)NC(=O)[C@@H]1CCCN1C(=O)[C@H](CCCCN)NC(=O)[C@@H]1CCCN1C(=O)[C@H](N)CCCNC(=N)N)C(=O)O [metabolite 2, H-D-Arg-Pro-Lys-Pro-D-Phe-Gln-D-Trp-Phe-D-Trp-Leu-OH] (HELM PEPTIDE1{[dR].P.K.P.[dF].Q.[dW].F.[dW].L}$$$$V2.0)
antagonist activity with respect to bombesin (inhibition of [3H]thymidine uptake) [8]: retained none of the antagonist properties
antagonist activity with respect to bradykinin (inhibition of [3H]thymidine uptake) [9]: retained none of the antagonist properties
